# Source: paper PMC12117998, “First Steps toward the Design of Peptides that Influence the Intracellular Palmitoylation Machinery” (Chembiochem, 2025)
# No end group written: not given here.
# Tests used:
# [1] = system: EGFR signaling in SW480 cells; assay: EGFR‐related signaling cascade (immunoblot); format: cell-based, human; details: SW480, serum‐starved, 15 μM DC‐2 for 6 h
# Protocol: (§1) SW480 and SW620 cells (1,200,000) were seeded into a 6‐well plate. The next day, cells were once washed with PBS and starved for 18 h with DMEM + 0.2% BSA. Next, 15 μM DC‐2 diluted in DMEM + 0.2% BSA was incubated with the cells for 6 h. Control wells were only treated with the starvation medium. Afterward, all wells were washed once with PBS and 200 ng ml^−1 EGF diluted in DMEM + 0.2% BSA was added for 15 min. Cells were again washed once with PBS and ice‐cold lysis buffer (25 mM Tris, 150 mM NaCl,1 mM TCEP, 2 mM EDTA, 1% Triton‐X‐100, pH 7.4) supplemented with Halt Protease and Phosphatase Inhibitor Cocktail (Thermo Fisher) was added to scrape the cells from the well. Lysates were incubated on ice for 30 min slightly shaking. After centrifugation for 30 min at 14,000 rpm at 4 °C, lysates were mixed with 4X SDS‐PAGE loading buffer (200 mM Tris‐HCl pH 6.8, 400 mM dithiothreitol, 8% SDS, 0.4% bromophenol blue, and 40% glycerol) and heated at 95 °C for 5 min. Protein samples were analyzed by SDS‐PAGE and immunoblotting. The following antibodies were used: anti‐EGFR (Cell Signaling Technology (CST) Cat#4267), anti‐pEGFR (CST Cat #3777), anti‐AKT (CST Cat#9272); anti‐pAKT (CST Cat#4060); anti‐ERK1/2 (CST Cat#4695); anti‐pERK1/2 (CST Cat#4370); anti‐β‐actin‐horseradish peroxidase (HRP) (Santa Cruz Biotechnology Cat# sc‐47778 HRP); or anti‐rabbit‐HRP conjugate (CST Cat#7074S). Images were cropped, processed, and quantified using the ImageLab software (BioRad).
# [2] = system: EGFR signaling in SW620 cells; assay: EGFR‐related signaling cascade (immunoblot); format: cell-based, human; details: SW620 (low EGFR expression), serum‐starved, 15 μM DC‐2 for 6 h, ± 200 ng ml^−1 EGF 15 min, n = 3
# Protocol: as §1
substance,measurement,setting,value
"GLRKRLRKFRNKKMDHHCPW-NH2 [DC‐2, CPP sC18* fused to the DHHC motif derived from ZDHHC2/3/6/7/15/16/20]","ERK and AKT phosphorylation, peptide only vs untreated",[1]; n = 3 (Figure 8B),slight increase in ERK and AKT phosphorylation
same,"EGFR and ERK phosphorylation, peptide and EGF vs EGF only","[1]; then 200 ng ml^−1 EGF 15 min, n = 3 (Figure 8B,C)",increase in EGFR and ERK phosphorylation
same,effects on EGFR signaling,[2],no effects
